The test system of series [1] is E. coli 7KOΔtolC strains over-expressing nitroreductase candidates from plasmid pUCX. The series can be described thus: Cell sensitivity assay, nitroreductase over-expressing strains. Type of series: cell-based. The following applies: for IC50: Escherichia coli.
A further series deals with M. tuberculosis. The following applies: cited from earlier work.
For another series, the system named is E. coli 7KO. The series can be described thus: Cell sensitivity assay (growth, OD600).
The nature of series [2]: Heatmap growth inhibition assay, drug-resistant clinical isolates. The following applies: read-out: IC50 against clinical isolates.
In series [3] the test system is methicillin resistant Staphylococcus aureus (MRSA; ATCC43300). The series is described as follows: Heatmap growth inhibition assay, MRSA. The following applies: single agent.
Series [4] deals with Staphylococcus aureus ATCC 43300 (MRSA). The series can be described thus: Growth inhibition of Gram positive bacteria: IC50 measurements. The following applies: ATCC43300|MRSA, 4 h, read-out: IC50 against Staphylococcus aureus ATCC 43300 (MRSA).
Experimental: (§1) Data are the mean of two independent replicates (using duplicate technical replicates for each independent experiment) and error bars indicate standard error of the mean.
(§2) Data are the mean of two technical replicates.
(§3) 15 mL tubes containing 2 mL tryptic soy broth (TSB) were inoculated with the Gram positive bacterial strains Staphylococcus aureus ATCC 43300 (MRSA), Bacillus thuringiensis P.1.IPS-80 serovar israelensis, or Listeria welshimeri ATCC 35897. Strains were incubated overnight at 37° C. with shaking at 200 rpm. The following day, the overnight cultures were diluted in fresh TSB to give an OD600 of approximately 0.3. Duplicate 40 μL aliquots of this were then added to individual wells of a sterile 384 well plate, containing 40 μL TSB medium supplemented with serial dilutions of 2× niclosamide or nitazoxanide, including 0 μM controls. Culture turbidity was monitored by optical density at 600 nm at 4 h post-challenge. Percentage growth inhibition values were calculated by comparison of the niclosamide- or nitazoxanide-challenged cells with the unchallenged control for each strain, after subtracting the initial absorbance values (t=0 h). […]
Series [5] has as its system quorum sensing system in Pseudomonas aeruginosa. The following applies: among FDA-approved drugs tested; cited from earlier work.
For the next series, the system named is E. coli 7KOΔtolC. The series is described as follows: Cell sensitivity assay (growth, OD600).
The next series concerns E. coli 6KO. The series is described as follows: Toxicity to E. coli host strain. Type of series: cell-based. The following applies: even if not over-expressing an active nitroreductase. The source says: Without wishing to be bound by theory, the applicants hypothesise that a key difference between the niclosamide-sensitive SOS-R2 and niclosamide-resistant 6KO strains is that the former carry a deletion of the tolC gene, which encodes an efflux pump capable of exporting numerous xenobiotic and other compounds directly across both cell membranes of Gram negative bacterial cells.

The subject of series [6] is Mycobacterium tuberculosis. The following applies: cited from earlier work.
The test system of series [7] is Listeria welshimeri ATCC 35897. The series can be described thus: Growth inhibition of Gram positive bacteria: IC50 measurements. The following applies: ATCC35897, 4 h, read-out: IC50 against Listeria welshimeri ATCC 35897.
Experimental: as §1, §2, §3
The next series deals with Salmonella typhimurium. The following applies: cited from earlier work.
The target of a further series is AcrAB-TolC (Escherichia coli, UniProt P02930+P31224). The following applies: cited from earlier work.
Chain of AcrAB-TolC (P31224 whole entry): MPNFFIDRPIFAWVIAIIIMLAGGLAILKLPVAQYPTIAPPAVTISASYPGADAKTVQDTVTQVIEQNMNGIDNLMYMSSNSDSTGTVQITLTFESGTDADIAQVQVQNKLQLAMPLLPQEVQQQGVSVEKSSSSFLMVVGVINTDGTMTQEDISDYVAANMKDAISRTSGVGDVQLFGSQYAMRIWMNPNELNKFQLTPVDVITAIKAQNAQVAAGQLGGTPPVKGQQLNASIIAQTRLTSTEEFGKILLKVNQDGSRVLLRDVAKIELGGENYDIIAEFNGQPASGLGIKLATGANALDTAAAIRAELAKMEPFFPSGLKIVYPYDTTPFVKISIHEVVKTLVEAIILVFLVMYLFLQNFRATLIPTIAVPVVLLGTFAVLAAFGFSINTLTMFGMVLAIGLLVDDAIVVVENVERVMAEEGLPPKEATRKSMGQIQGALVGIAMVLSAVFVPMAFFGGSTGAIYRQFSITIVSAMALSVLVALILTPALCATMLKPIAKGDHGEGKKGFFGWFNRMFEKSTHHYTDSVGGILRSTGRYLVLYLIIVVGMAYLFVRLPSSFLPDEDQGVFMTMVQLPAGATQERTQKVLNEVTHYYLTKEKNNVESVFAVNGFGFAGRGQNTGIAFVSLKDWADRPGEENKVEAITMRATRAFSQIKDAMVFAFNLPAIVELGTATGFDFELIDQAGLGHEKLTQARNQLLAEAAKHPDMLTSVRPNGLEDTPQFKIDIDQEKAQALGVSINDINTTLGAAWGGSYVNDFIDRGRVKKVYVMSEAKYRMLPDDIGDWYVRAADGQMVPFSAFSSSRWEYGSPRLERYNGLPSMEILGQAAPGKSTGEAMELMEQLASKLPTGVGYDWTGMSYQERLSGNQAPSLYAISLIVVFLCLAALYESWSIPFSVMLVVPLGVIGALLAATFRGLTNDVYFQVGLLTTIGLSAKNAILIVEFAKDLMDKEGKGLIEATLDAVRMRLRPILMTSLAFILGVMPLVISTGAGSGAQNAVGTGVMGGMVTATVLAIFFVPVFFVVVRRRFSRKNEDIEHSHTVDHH
Chain of AcrAB-TolC (P02930 23-493): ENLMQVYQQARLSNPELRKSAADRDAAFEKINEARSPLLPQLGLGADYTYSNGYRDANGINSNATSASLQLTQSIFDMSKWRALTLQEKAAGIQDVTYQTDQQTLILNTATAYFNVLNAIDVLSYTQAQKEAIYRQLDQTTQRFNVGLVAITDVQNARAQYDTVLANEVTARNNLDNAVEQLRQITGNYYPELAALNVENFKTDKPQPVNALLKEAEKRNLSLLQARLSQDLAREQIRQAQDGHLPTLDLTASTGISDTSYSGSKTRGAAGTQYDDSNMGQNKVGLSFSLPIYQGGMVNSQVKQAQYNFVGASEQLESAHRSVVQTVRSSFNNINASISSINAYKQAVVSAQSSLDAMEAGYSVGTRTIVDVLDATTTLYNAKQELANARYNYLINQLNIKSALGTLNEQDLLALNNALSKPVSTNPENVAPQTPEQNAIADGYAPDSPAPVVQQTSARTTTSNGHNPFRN
Chain of AcrAB-TolC (P0AE06 25-397, further chain): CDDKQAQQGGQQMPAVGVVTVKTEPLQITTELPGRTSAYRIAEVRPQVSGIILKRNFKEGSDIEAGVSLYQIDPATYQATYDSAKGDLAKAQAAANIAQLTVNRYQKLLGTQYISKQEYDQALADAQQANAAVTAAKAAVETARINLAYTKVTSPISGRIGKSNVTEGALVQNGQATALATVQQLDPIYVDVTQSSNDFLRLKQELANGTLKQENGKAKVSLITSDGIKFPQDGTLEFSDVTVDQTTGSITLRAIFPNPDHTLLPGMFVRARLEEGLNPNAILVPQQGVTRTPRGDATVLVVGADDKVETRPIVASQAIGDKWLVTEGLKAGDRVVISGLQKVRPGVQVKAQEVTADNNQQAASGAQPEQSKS
The subject of series [8] is efflux pumps over-expressed in P. aeruginosa. The following applies: growth inhibition in presence of levofloxacin; cited from earlier work.
Another series has as its system E. coli 7KOΔtolC (DE3). The series is described as follows: 7KOΔtolC(DE3) cell sensitivity assay.
For another series, the system named is pyruvate oxidoreductases. The following applies: cited from earlier work.

Like-named read-outs stand apart in the source and are kept apart here. Peptide text beside a SMILES is read from it. * marks the point of attachment. βNA = c1ccc2cc(N*)ccc2c1

Experimental for E. coli 7KOΔtolC (DE3): Overnight cultures of E. coli 7KOΔtolC (DE3) strains overexpressing either E. coli NfsA (NfsA_Ec), E. coli NfsB (NfsB_Ec) or containing a plasmid only (pET28) control are used to inoculate fresh aliquots of assay media (LB media supplemented with 50 μg·mL^−1 kanamycin and 50 μM IPTG) which are incubated at 30° C., 200 rpm for 2.5 h. 40 μL aliquots of each culture are then added to 40 μL aliquots of assay media containing 2× the desired final concentration of nitazoxanide (i.e., resulting in a final 2-fold dilution series from 20 down to 2.5 μM) or a 0 μM media only control. The plate is then incubated at 30° C., 200 rpm for 4 h. Culture turbidity is monitored by optical density at 600 nm in order to calculate percentage growth relative to the 0 μM control for each strain. Data are the mean of at least two independent experiments±SEM.
Individual wells of a 96-well microtitre plate containing 100 μL LB supplemented with 50 μg mL^−1 are inoculated in duplicate with 7KOΔtolC(DE3) strains overexpressing E. coli nfsA, E. coli nfsB or a pET28 empty plasmid control. Strains are incubated overnight at 30° C. in a Heidolph titramax platform shaker at 900 rpm. 30 μL of each overnight culture is used to inoculate duplicate cultures of 600 μL LB supplemented with 50 μg mL^−1 kanamycin and 50 μM IPTG in a 96 well deep culture plate (Axygen). Cultures are incubated at 30° C., 1200 rpm for 2.5 h. 40 μL aliquots from each culture are then added to individual wells of a sterile 384 well plate, containing 40 μL LB medium supplemented with 100 μg mL^−1 kanamycin, 50 μM IPTG and serial dilutions of nitazoxanide, including 0 μM controls. Each nitroreductase over-expression strain is tested in duplicate (independent replicates). Culture turbidity is monitored by optical density at 600 nm 4 h post-challenge. Percentage growth values are calculated by comparison of the nitazoxanide-challenged cells with the unchallenged control, after subtracting the initial absorbance values (t=0 h). Microtitre plate absorbance readings are measured using an Eon Biotek Reader (BioTek Instruments Inc.).

In the case of `O=C(Nc1ccc([N+](=O)[O-])cc1Cl)c1cc(Cl)ccc1O` [Niclosamide, N-(2′-chloro-4′-nitrophenyl)-5-chlorosalicylamide], the “IC50, strains over-expressing NfsA, NfsB and AzoR” value in [1] (7KOΔtolC, pUCX NfsA, NfsB or AzoR) is given as “low micromolar”. Also, the IC50 is 83 nM in series [1] (read-out: IC50, MdaB over-expressing strain); 300 nM in series [1] (read-out: IC50, NemA over-expressing strain); 47 nM in [1] (read-out: IC50, empty plasmid control strain); > 5000 nM in the series on E. coli 7KO (Escherichia coli, 7KO, 4 h, read-out: IC50 for 7KO); > 20000 nM in [2]; 132 nM in series [4]. Besides, the concentration for half-maximal inhibition (IC50) turned out to be 120 nM in the series on E. coli 7KOΔtolC (Escherichia coli, 4 h, read-out: IC50 for 7KOΔtolC) and 284 nM in series [7]. In addition, the “Effect on membrane potential” value in the series with M. tuberculosis is recorded as “uncoupled the membrane potential”. The “Sensitivity of MRSA (concentration level)” value in series [3] is recorded as “nanomolar concentrations”. In addition, the Anti-quorum sensing activity entry in series [5] is “highest anti-quorum sensing activity”. Also, in the series on E. coli 6KO, the “Toxicity to 6KO strain” value is “no longer found to be toxic”. The minimum inhibitory concentration (MIC) in series [6] is 0.5 to 1 µg/mL. The “Activity against non-replicating M. tuberculosis” value in [6] (grown in low oxygen conditions) was “active”.
On to `Nc1ccc([N+](=O)[O-])cc1Cl` [2-chloro-4-nitroaniline], for which the Mutagenicity entry with Salmonella typhimurium is reported as “mutagenic product”. Also, the “Toxicity relative to niclosamide” value with E. coli 7KOΔtolC (growth inhibition of 7KOΔtolC, FIG. 15) is given as “at least three orders of magnitude less toxic than niclosamide”.
With `O=C(O)c1cc(Cl)ccc1O` [5-chlorosalicyclic acid], in the series with Salmonella typhimurium, the Mutagenicity result is “non-mutagenic”.
Turning to `N=C(N)NCCC[C@H](NC(=O)[C@@H](N)Cc1ccccc1)C(=O)Nc1ccc2ccccc2c1` [PAβN, phenylalanine-arginine β-napthylamide] (H-Phe-Arg-βNA), on AcrAB-TolC, the “Activity against AcrAB-TolC” value is listed as “active against AcrAB-TolC”. For the same compound, the “Effect of PAβN on niclosamide sensitivity” value in the series on E. coli 7KO (25 μM or 50 μM PAβN, niclosamide 10 μM down to 156 nM) was “promote niclosamide sensitivity in the 7KO strain in a dose-dependent manner”. Also, the “Activity against P. aeruginosa efflux pumps” value in series [8] was “active against each of the efflux pumps”. Besides, in series [3], the “Sensitivity of MRSA (concentration level)” value is given as “micromolar levels”.
Take `CC(=O)Oc1ccccc1C(=O)Nc1ncc([N+](=O)[O-])s1` [Nitazoxanide, 2-acetyloxy-N-(5-nitro 2-thiazolyl)benzamide]: the “Toxicity relative to niclosamide (less toxic)” value in the series with E. coli 7KOΔtolC (DE3) (7KOΔtolC (DE3) cells) is listed as “approximately 2 orders of magnitude”. The “Effect of NfsA and NfsB over-expression on toxicity” value in the series on E. coli 7KOΔtolC (DE3) (7KOΔtolC (DE3), pET28 NfsA or NfsB) is “able to defend against nitazoxanide toxicity”. Besides, the IC50 with E. coli 7KOΔtolC (DE3) (Escherichia coli, 4 h, read-out: IC50 in 7KOΔtolC (DE3) cells) is 5200 nM; in series [4], 2900 nM; in series [7], 8780 nM. The “Inhibition of pyruvate oxidoreductases” value in the series with pyruvate oxidoreductases is “inhibits pyruvate oxidoreductases”. Besides, the “Effect on membrane potential” value in the series on M. tuberculosis was “disrupts membrane potential and pH homeostasis”; with M. tuberculosis (listed as nitazoxanide) it was “uncoupled the membrane potential”.

The term IC50 denotes the concentration that inhibits the measured activity by half. By MIC is commonly meant the lowest concentration that inhibits growth of the organism.
